Laboratory results published in PubChem BioAssay (NCI).
“And” between values parts separate entries of the source, which are not always exact repeats. Identical values can stand only once.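 All cell lines were grown in 96-well plates and treated with compound for 48 hours. GI50: concentration for 50% inhibition of growth. TGI denotes the concentration required for complete inhibition of growth.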

System: MDA-MB-468 breast
Test: growth of human tumour cells (NCI), 48 h

Row | SMILES | GI50 | TGI [µM]
1 | CC[C@H](NC(=O)[C@H](C)NC)C(=O)N1C[C@@H](O)C[C@H]1Cc1c(-c2[nH]c3cc(F)ccc3c2C[C@@H]2C[C@H](O)CN2C(=O)[C@H](CC)NC(=O)[C@H](C)NC)[nH]c2cc(F)ccc12 | 0.2 µM | 28
2 | CC(=O)N[C@H]1C=C[C@@H]2/C=C(C)/C=C/[C@@H](C)[C@H]([C@H](C)[C@H](O)[C@@H](C)NC(C)=O)OC(=O)/C=C/C=C(C)\C=C\[C@]2(C)C1 | 0.00184 µM and 0.0045 µM | –
3 | COc1ccc(/C=N\NC(=O)CN2CCN(c3cc4c(cc3F)c(=O)c(C(=O)N/N=C/c3ccc(OC)c(OC)c3)cn4C3CC3)CC2)cc1OC | 3.07 µM | 8.35
4 | O=c1c(Oc2ccc(F)cc2F)cc2cnc(NC3CCOCC3)nc2n1C1CCS(=O)(=O)CC1 | > 25 µM | > 25
5 | O=[N+]([O-])c1cc(Cl)c(Cl)c([N+](=O)[O-])c1Cl | 1.05 µM | 2.64
6 | O=c1ccn(C2OC(CO)C(O)C2F)c(=O)[nH]1 (configuration not stated) | > 1000 µM | > 1000
7 | CO[C@@H]1/C=C\C=C(/C)C(=O)NC2=CC(=O)C(NCCN(C)C)=C(C[C@@H](C)C[C@@H](OC)[C@@H](O)[C@H](C)/C=C(\C)[C@H]1OC(N)=O)C2=O | 0.0187 µM | 0.0656
8 | CN[C@@H](C)C(=O)N[C@H](C(=O)N1CCC[C@H]1C(=O)N[C@H]1c2ccccc2C[C@H]1OCC#CC#CCO[C@@H]1Cc2ccccc2[C@@H]1NC(=O)[C@@H]1CCCN1C(=O)[C@@H](NC(=O)[C@H](C)NC)C1CCCCC1)C1CCCCC1 | < 0.01 µM | 2.18
9 | CCOC(=O)Nc1nc2ccc(Cn3cccc3)cc2[nH]1 | 2.44 µM | > 100
10 | COc1cc(Nc2nccc(Nc3ccc4c(C)[nH]nc4c3)n2)cc(OC)c1OC | 2.12 µM | 7.86
11 | C=C1C(=O)O[C@H]2[C@H]1CC/C(CNC(=O)c1cc3cc(OC)ccc3[nH]1)=C\CC[C@@]1(C)O[C@@H]21 | 0.714 µM | 2.61
12 | CC(C)=CCCC(C)c1ccc(C)c2c1OCN(CC1CCNCC1)C2 (configuration not stated) | 5.01 µM | 18.5
13 | COc1ccc(CN(C)c2ccc(CO)c(Cl)c2)cc1 | 0.0551 µM | 0.197
14 | CC1=C2[C@@H](CC1)[C@]1(C)O[C@@](C3CCCCC3)(C[C@H]1OC(=O)CO)[C@H]2OC(=O)/C=C/c1ccccc1 | 9.64 µM | 24.4
15 | C#C[C@]1(O)CC[C@H]2[C@@H]3CC=C4c5sc(Nc6cccc(Cl)n6)nc5CC[C@]4(C)[C@H]3CC[C@@]21C | 1.49 µM | 4.05
16 | Cc1cc(C)c([O-])c(CN(C)CCN(C)Cc2cc(C)cc(C)c2[O-])c1.O=C([O-])c1cccc(C(=O)[O-])n1.[Ti+4] | 1.33 µM | 3.65
17 | COc1cc(C(=O)/C(C)=C/c2c[nH]c3ccccc23)cc(OC)c1OC | 0.00334 µM | –
18 | CC(=O)c1c(C)[nH]c(-c2nc3ccc(N4CCN(C)CC4)cc3[nH]2)c1-c1ccc(OCC2CCOCC2)cc1 | 0.302 µM | 7.88
20 | COc1cc(OC)c(/C=C/S(=O)(=O)Cc2cnc(OC)c(N)c2)c(OC)c1 | < 0.0212 µM | > 100
21 | NOCC(=O)O | > 100 µM | > 100
22 | Cc1ccccc1NC(=O)N/C(N)=N/c1nc(-c2cccc([N+](=O)[O-])c2)cs1 | 1.64 µM | 7.24
23 | COc1cc(OC)cc(C2CC(=O)Nc3c2c(C)nn3-c2nc3ccccc3[nH]2)c1 (configuration not stated) | 3.93 µM | > 100
24 | O=c1c2cc(Cl)ccc2oc2ccc(OCCCCCN3CCCCC3)cc12 | 5.19 µM | 12.7
25 | O=C(O[C@H]1CN[C@H](C#Cc2cc3ncnc(Nc4ccc5c(ccn5Cc5cc(F)ccc5F)c4)c3s2)C1)N1CCOCC1 | 0.141 µM | 1.59
26 | CCN1CCN(C(=O)[C@]23CC[C@@H](C)[C@H](C)[C@@H]2C2=CC[C@@H]4[C@@]5(C)C/C(=C/c6ccncc6)C(=O)C(C)(C)[C@@H]5CC[C@@]4(C)[C@]2(C)CC3)CC1 | 1.63 µM | 3.38
27 | Cc1nc2sc(C(=O)Nc3cccc(Cl)c3C)c(N)c2cc1C(=O)/C=C/c1ccccc1 | 0.212 µM | 0.811
